{"source": "patent US20170274006A1", "about": "“NASAL COMPOSITION COMPRISING MIXTURE OF HYALURONIC ACIDS AND SALINE SOLUTION” (SOFIBEL, priority 2014, published 2017)", "test_system": "HRV-A16", "experiment": "Anti-viral effect: inhibition of HRV-A16 replication on human airway epithelial cell culture", "type": "cell-based, rhinovirus", "details": "applied one hour before infection; change in viral RNA", "description": "The example 1 composition is tested according to the test of evaluation of the potential activity against HRV-A16 (a rhinovirus responsible for colds) on fully differentiated human airway epithelial cells culture. The compositions are first applied before infection for one hour and the replication is carried out for 4 hours. 3 rinsing steps with the formulations are carried out. The remaining is collected and the RNA is dosed after cell lysis. The same collecting step is carried out 24 hours after and the same dosing step is carried out. The percentage expressed the changes in viral RNA, resulting in the % of inhibition of HRV-A16 replication, leading to the anti-viral efficacy. The tested composition is tested against rupintrivir (a known antiviral compound, providing an almost complete response).", "data": [{"smiles": "CCOC(=O)/C=C/[C@H](C[C@@H]1CCNC1=O)NC(=O)[C@@H](CC(=O)[C@@H](NC(=O)c1cc(C)on1)C(C)C)Cc1ccc(F)cc1", "note": "[Rupintrivir]", "values": [{"measurement": "Inhibition (%) of HRV-A16 replication", "result": 99.62, "unit": "%"}]}]}
